Experiments:
[1] = tested on: human AML MV-4-11 (CRL-9591) cells; experiment: Inhibition of cell proliferation in MV4-11 cells; format: cell-based; set-up: key: Active: Compounds with an IC50 value less than 30 μM were deemed to be active.; Not Active: Compounds with an IC50 value less than 30 μM were deemed to be active; details: human AML MV-4-11 cells, 72 h; active = IC50 <30 μM
In short: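 Exponentially growing MV-4-11 cells (5×10^4/well) were treated immediately with two-fold dilutions of compound from 30 μM to 0.2 μM, in triplicate, for 72 h at 37° C, 5% CO2. Viability was measured by MTS absorbance at 490 nm after 3–4 h. Proliferation relative to DMSO after blank correction gave IC50.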

[2] = tested on: c-myc; experiment: Inhibition of c-myc expression in MV4-11 cells (mRNA, real-time PCR); format: cell-based; set-up: key: Active: Compounds with an IC50 value less than 30 μM were deemed to be active.; Not Active: Compounds with an IC50 value less than 30 μM were deemed to be active; details: Human AML MV4-11 cells, 3 h incubation
In short: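 MV4-11 cells (2.5×10^4) treated with compound or 0.1% DMSO for 3 h at 37 °C. c-myc mRNA measured by RT real-time PCR duplexed with cyclophilin. IC50 from dose–response curve.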

[3] = tested on: hIL-6 mRNA; experiment: Inhibition of hIL-6 mRNA transcription in U937 cells; format: cell-based, human; set-up: key: Active: Compounds with an IC50 value less than 30 μM were deemed to be active.; Not Active: Compounds with an IC50 value less than 30 μM were deemed to be active; details: LPS stimulation, active = IC50 <30 μM
In short: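 U937 cells differentiated 3 days with 60 ng/mL PMA, pretreated 1 h with compound, then stimulated with 1 ug/mL E. coli LPS for 3 h at 37° C. hIL-6 mRNA quantified by one-step qRT-PCR, Ct normalized to internal control, expressed as fold induction relative to control.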

[4] = target: T1, Brd4 bromodomain 1 (BRD4(1)) (Homo sapiens, UniProt O60885); experiment: Inhibition of tetra-acetylated histone H4 binding to Brd4 bromodomain 1 (TR-FRET); set-up: key: Active: Compounds with an IC50 value less than 30 μM were deemed to be active.; Not Active: Compounds with an IC50 value less than 30 μM were deemed to be active; details: tetra-acetylated histone H4 peptide, active = IC50 <30 μM
T1 construct: Illustrative results with the first bromodomain of Brd4; made in house; host or cells: E. coli BL21 (DE3)
In short: (§1)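 N-terminally His-tagged bromodomains (200 nM), expressed in E. coli, were incubated with biotinylated tetra-acetylated histone H4 peptide (25-50 nM), Eu-cryptate streptavidin and XL665 anti-His antibody in HEPES pH 7.4 buffer with KF, 0.2% DMSO, 2 h at room temperature. Inhibition read as decreased 665/620 nm TR-FRET; IC50 from dose-response curves.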

[5] = target: T2, second bromodomain of Brd2 (BRD2(2)) (Homo sapiens, UniProt P25440); experiment: Inhibition of tetra-acetylated histone H4 binding to Brd2 bromodomain 2 (TR-FRET); set-up: key: Active: Compounds with an IC50 value less than 30 μM were deemed to be active.; Not Active: Compounds with an IC50 value less than 30 μM were deemed to be active; details: tetra-acetylated histone H4 peptide, active = IC50 <30 μM
T2 construct: made in house; host or cells: E. coli BL21 (DE3)
In short: as §1

[6] = tested on: ApoA-I mRNA; experiment: Up-regulation of hApoA-1 mRNA transcription in Huh7 cells; format: cell-based, human; set-up: key: Active: Compounds with an EC170 value less than 30 μM were deemed to be active; details: 48 h treatment, ApoA-I mRNA by real-time PCR, Active = EC170 less than 30 μM
In short: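 Huh7 cells treated with compound for 48 h. ApoA-I mRNA was then quantified in captured mRNA by one-step real-time RT-PCR. Fold induction calculated from Ct values relative to the matching DMSO control; EC170 is the concentration for 170% of control expression.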

T2 sequence (P25440 344-453 limits assumed): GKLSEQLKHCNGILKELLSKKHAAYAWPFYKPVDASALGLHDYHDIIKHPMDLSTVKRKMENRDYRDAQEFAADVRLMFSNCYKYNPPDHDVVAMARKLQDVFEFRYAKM

Row | Cell Proliferation activity (IC50 <30 μM) [1] | c-myc activity (IC50 <30 μM) [2] | IL-6 activity (IC50 <30 μM) [3] | FRET activity (IC50 <30 μM) BRD4(1) [4] | FRET activity (IC50 <30 μM) BRD2(2) [5] | melting point [°C] | SMILES | ApoA-1 activity (EC170 <30 μM) [6]
1 | Active | Active | Active | Active | Active | – | Cc1noc(C)c1-c1ccc(=O)n([C@H](C)c2ccccc2)n1 [Example 108, (R)-6-(3,5-Dimethylisoxazol-4-yl)-2-(1-phenylethyl)pyridazin-3(2H)-one] | Active
2 | Active | Active | Active | Active | Active | – | Cc1noc(C)c1-c1ccc(=O)n([C@@H](C)c2ccccc2)n1 [Example 109, (S)-6-(3,5-Dimethylisoxazol-4-yl)-2-(1-phenylethyl)pyridazin-3(2H)-one] | Active
3 | Not Active | Not Active | Active | Active | Active | – | COc1ccc(Cn2nc(-c3cc(OC)c(OC)c(OC)c3)ccc2=O)cc1 [Example 117, 2-(4-Methoxybenzyl)-6-(3,4,5-trimethoxyphenyl)pyridazin-3(2H)-one] | Active
4 | Active | Not Active | Active | Active | Active | – | COc1cc(-c2ccc(=O)n(Cc3ccccc3C#N)n2)cc(OC)c1OC [Example 118, 2-((6-Oxo-3-(3,4,5-trimethoxyphenyl)pyridazin-1(6H)-yl)methyl)benzonitrile] | Active
5 | Active | Not Active | Active | Active | Active | – | COc1cccc(Cn2nc(-c3cc(OC)c(OC)c(OC)c3)ccc2=O)c1 [Example 119, 2-(3-Methoxybenzyl)-6-(3,4,5-trimethoxyphenyl)pyridazin-3(2H)-one] | Active
6 | Active | Active | Active | Active | Active | – | Cc1noc(C)c1-c1ccc(=O)n(C(C)c2ccccc2)c1 (stereo not drawn) [Example 125, 5-(3,5-Dimethylisoxazol-4-yl)-1-(1-phenylethyl)pyridin-2(1H)-one] | Active
7 | Active | Active | Active | Active | Active | – | Cc1noc(C)c1-c1ccc(=O)n(Cc2ccc(F)cc2)c1 [Example 132, 5-(3,5-Dimethylisoxazol-4-yl)-1-(4-fluorobenzyl)pyridin-2(1H)-one] | Active
8 | Not Active | Active | Active | Active | Active | – | Cc1noc(C)c1-c1ccc(=O)n(Cc2ccc3[nH]cnc3c2)c1 [Example 146, 1-((1H-benzo[d]imidazol-5-yl)methyl)-5-(3,5-dimethylisoxazol-4-yl)pyridin-2(1H)-one] | Active
9 | Active | Active | Active | Active | Active | – | Cc1noc(C)c1-c1ccc(=O)n(Cc2ccc(F)c(Cl)c2)c1 [Example 147, 1-(3-Chloro-4-fluorobenzyl)-5-(3,5-dimethylisoxazol-4-yl)pyridin-2(1H)-one] | Active
10 | Active | Active | Active | Active | Active | – | Cc1noc(C)c1-c1ccc(=O)n(Cc2ccc3[nH]ncc3c2)c1 [Example 148, 1-((1H-Indazol-5-yl)methyl)-5-(3,5-dimethylisoxazol-4-yl)pyridin-2(1H)-one] | Active
11 | Active | Active | Active | Active | Active | – | Cc1noc(C)c1-c1ccc(=O)n(Cc2cccc3[nH]ccc23)c1 [Example 149, 1-((1H-Indol-4-yl)methyl)-5-(3,5-dimethylisoxazol-4-yl)pyridin-2(1H)-one] | Active
12 | Active | Active | Active | Active | Active | – | COc1ccccc1Cn1cc(-c2c(C)noc2C)ccc1=O [Example 162, 5-(3,5-Dimethylisoxazol-4-yl)-1-(2-methoxybenzyl)pyridin-2(1H)-one] | Active
13 | Active | Active | Active | Active | Active | 197 to 200 | COc1cc(-c2nn(Cc3ccccc3)c(=O)c3ccccc23)ccc1O [Example 165, 2-Benzyl-4-(4-hydroxy-3-methoxyphenyl)-2H-phthalazin-1-one] | –
14 | – | – | – | Active | Not Active | 174 to 176 | COc1ccc(-c2cn(Cc3ccccc3)c(=O)c3ccccc23)cc1OC [Example 166, 2-Benzyl-4-(3,4-dimethoxyphenyl)isoquinolin-1(2H)-one] | –
15 | – | – | – | Active | Active | 192 to 195 | Cc1noc(C)c1-c1cn(Cc2ccccc2)c(=O)c2cccnc12 [Example 173, 6-Benzyl-8-(3,5-dimethylisoxazol-4-yl)-1,6-naphthyridin-5(6H)-one] | –
16 | – | – | – | Active | Active | 168 to 170 | Cc1noc(C)c1-c1cn(Cc2ccccc2)c(=O)c2ncccc12 [Example 174, 7-Benzyl-5-(3,5-dimethylisoxazol-4-yl)-1,7-naphthyridin-8(7H)-one] | –
17 | – | – | – | Active | Active | 174 to 177 | Cc1noc(C)c1-c1cn(Cc2ccccc2)c(=O)c2cnccc12 [Example 175, 2-Benzyl-4-(3,5-dimethylisoxazol-4-yl)-2,7-naphthyridin-1(2H)-one] | –
18 | – | – | – | Active | Active | 159 to 161 | Cc1noc(C)c1-c1cn(Cc2ccccc2)c(=O)c2ccncc12 [Example 176, 2-Benzyl-4-(3,5-dimethylisoxazol-4-yl)-2,6-naphthyridin-1(2H)-one] | –

Reference: patent US9271978B2 (Zenith Epigenetics Corp., priority 2012, dated 2016)
